Source: PMC10065799, “High-throughput profiling of sequence recognition by tyrosine kinases and SH2 domains using bacterial peptide display” (eLife, 2023)
Where two headings read alike, the source gives them in different places. Square brackets hold non-standard residues; d marks the D form. pY = N[C@@H](Cc1ccc(OP(=O)(O)O)cc1)C(=O)O

How the values were obtained:
[1] = system: EPHB1 kinase domain; assay: pTyr-Var library bacterial peptide display kinase screen (enrichment scores); type: biochemical, human; settings: for Screen (variant relative to reference peptide, measured in the pTyr-Var library screen): sheet "EPHB1", variant seq vs reference seq, bacterial peptide display enrichment; for Screen: sheet EPHB1, effect of the variant peptide relative to its reference peptide in the pTyr-Var library screen (enrichment scores)
[2] = molecular target: T1, c-Abl kinase domain (Mus musculus, UniProt P00520); assay: as above; type: biochemical
T1 sequence (P00520 242-493 limits assumed): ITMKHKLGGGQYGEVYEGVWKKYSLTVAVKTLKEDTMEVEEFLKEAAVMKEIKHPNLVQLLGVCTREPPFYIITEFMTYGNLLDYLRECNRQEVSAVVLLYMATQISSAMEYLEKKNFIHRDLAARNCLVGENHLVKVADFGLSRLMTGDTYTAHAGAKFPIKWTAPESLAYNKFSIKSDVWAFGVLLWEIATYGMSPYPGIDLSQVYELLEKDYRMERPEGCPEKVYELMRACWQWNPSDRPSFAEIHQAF

[3] = molecular target: T2, c-Src kinase domain (Homo sapiens, UniProt P12931); assay: as above; type: biochemical
[4] = system: EPHB2 kinase domain; assay: as above; type: biochemical, human; settings: sheet EPHB2;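 also: log2 fold change in enrichment of variant over reference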
[5] = system: Fer kinase domain; assay: as above; type: biochemical, mouse; settings: sheet "Fer";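 also: log2 fold change in enrichment of variant over reference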
[6] = molecular target: T2, c-Src kinase domain; assay: RP-HPLC assay to measure peptide phosphorylation kinetics; type: biochemical; settings: purified peptide substrate
[7] = molecular target: T1, c-Abl kinase domain; assay: as above; type: biochemical; settings: purified peptide substrate
[8] = molecular target: human c-Src SH2 domain (residues 143-250) (human, UniProt P12931-1 143-250, biotin on the Avi tag (co-expression with the biotin ligase BirA)); assay: fluorescence polarisation; competition: unlabeled phosphopeptide serially diluted against 30 nM fluorescent peptide and 240 nM (1.5 x KD) c-Src SH2; same buffer; 25 °C; cubic binding equation; settings: both partners purified
[9] = sheet "Src", variant peptide versus its reference peptide in the pTyr-Var library screen
[10] = effect of the variant relative to its reference peptide in the pTyr-Var library screen
[11] = value of the variant peptide against its reference peptide in the pTyr-Var library screen with Fer
[12] = effect of variant peptide relative to its reference peptide in the pTyr-Var library screen (enrichment scores)
[13] = sheet "Src", effect of the variant peptide relative to its reference peptide in the pTyr-Var library screen
[14] = variant peptide relative to its reference peptide, pTyr-Var library screen enrichment

Molecule: AEFGLYAAMVR [VSX2_Y222_G223A_YF]
- Screen (variant relative to reference peptide, measured in the pTyr-Var library screen) [1]: 1.956
- Screen ([2]; sheet "Abl", effect of variant peptide relative to its reference peptide in pTyr-Var library screen (enrichment)): 2.617
- Screen [3, 9]: -0.7281
- Screen [4, 10]: 1.609

Molecule: ALTDNYMFVVI [HAGH_Y61_L64V_YF]
- Screen [1]: 0.4544
- Screen [5, 11]: 0.9324
- Screen [4, 12]: 0.5365

Molecule: ASFSLYEPAKM [MKI67_Y340_P338S]
- Screen [1]: -1.581
- Screen [5, 11]: -0.8096
- Screen [3, 13]: -1.253
- Screen [4, 12]: -1.997

Molecule: AVIADYMFWLG [SPATA16_Y290_M286V]
- Screen (variant relative to reference peptide, measured in the pTyr-Var library screen) [1]: -0.3108
- Screen [5, 14]: -0.04255
- Screen [4, 12]: -0.2895

Molecule: Ac-EGWQVYRLGAR-NH2 [MISP_Y95, pTyr-Var library phosphosite peptide, non-canonical c-Src substrate]
- Phosphorylation Rate [6]: 0.701 s⁻¹

Molecule: Ac-LFSEYASVQV-NH2 [SIRPA_Y496_P491L, pTyr-Var library variant peptide, non-canonical c-Abl substrate]
- Phosphorylation Rate [7]: 0.182 s⁻¹
- Screen (variant relative to reference peptide, measured in the pTyr-Var library screen) [1]: 0.2454
- Screen [5, 14]: 0.5649
- Screen [3, 9]: -0.1318
- Screen [4, 12]: 0.1232

Molecule: Ac-SVEELYAIPPD-NH2 [PEAK1_Y797, pTyr-Var library phosphosite peptide]
- Phosphorylation Rate [7]: 0.407 s⁻¹

Molecule: Ac-VASSLYDIFAR-NH2 [GLB1_Y294_L297F, pTyr-Var library variant phosphosite peptide]
- Screen [5, 11]: 0.6922
- Screen [3, 13]: 1.173
- Phosphorylation Rate [6]: 1.477 s⁻¹
- Screen [4, 12]: 0.8382

Molecule: CPPKVYELMIA [ABL2_Y515_R519I]
- Screen [1]: -0.2414
- Screen [5, 11]: 0.2175
- Screen [3]: 0.5796
- Screen [4, 12]: -0.0581

Molecule: DNKALYDICFR [TUBB3_Y208_E205K]
- Screen (variant relative to reference peptide, measured in the pTyr-Var library screen) [1]: -0.6777
- Screen [5, 14]: -1.219
- Screen [3, 9]: -0.8548
- Screen [4, 10]: -1.114

Molecule: ELANLYHHVWM [BICD2_Y538_C542W]
- Screen [1]: 3.328
- Screen [5, 11]: 2.831
- Screen ([2]; fig5-data2, sheet "Abl", Screen for the variant/reference peptide pair, pTyr-Var library): -0.8428
- Screen [3, 13]: 0.8025
- Screen [4, 12]: 1.55

Molecule: FEELVYETVRV [FSHB_Y76_K72E]
- Screen [1]: -1.125
- Screen [5, 11]: -0.5222
- Screen [3, 13]: -0.8103
- Screen [4, 12]: -0.7932

Molecule: FGMQLYQKFMH [GRB14_Y347_N349K_YF]
- Screen [1]: -1.356
- Screen [5, 11]: -1.436
- Screen [3, 13]: -0.6929
- Screen [4, 12]: -1.587

Molecule: HLMLQYDAVVN [SLC25A32_Y152_R147H]
- Screen [5, 14]: 1.415
- Screen [4, 12]: 1.051

Molecule: HNVAIYEGFAL [ACTC1_Y168_P166A_YF]
- Screen [1]: -1.018
- Screen [5, 11]: -0.3735
- Screen [3, 13]: -0.2279
- Screen [4, 12]: -1.285

Molecule: IQRSLYDCPAS [PDGFRA_Y762_R764C]
- Screen [1]: 2.32
- Screen [5, 11]: 2.142
- Screen [4, 12]: 2.388

Molecule: LPPREYVVVPS [CAPN1_Y494_G492R]
- Screen [1]: -0.6929
- Screen [5, 11]: 0.6785
- Screen [4, 12]: -0.3372

Molecule: LQEQNYPAVDS [FAM114A1_Y115_L116P]
- Screen [1]: -2.139
- Screen [5, 11]: -1.861
- Screen [4, 12]: -0.9591

Molecule: MAPQMYESHLP [NCAPD2_Y6_F8S]
- Screen [1]: -3.091
- Screen [5, 11]: -1.098
- Screen [4, 12]: -2.267

Molecule: MKDLTYSSLCF [ALOX5_Y446_A447S]
- Screen [1]: 0.1163
- Screen [5, 11]: 1.165
- Screen [3, 13]: 0.1056
- Screen [4, 12]: 0.3665

Molecule: PIAPVYAPSMV [ACAT1_Y331_A333P]
- Screen [1]: -0.08214
- Screen [5, 11]: 1.079
- Screen [3]: -0.325
- Screen [4, 12]: 0.3731

Molecule: QAPPIYLDVLG [NTRK1_Y791_V790I]
- Screen [1]: 1.721
- Screen [5, 11]: 2.26
- Screen [3, 9]: 1.261
- Screen [4, 12]: 1.355

Molecule: QGFDTYFGFLL [ARSB_Y165_R160Q_YF]
- Screen [1]: 0.1277
- Screen [5, 11]: 0.9524
- Screen [3, 13]: 0.07217
- Screen [4, 12]: 0.8549

Molecule: QMVGMYAFSFM [AVPR2_Y124_S126F_YF]
- Screen [1]: 0.9458
- Screen [5, 11]: 2.024
- Screen [3, 13]: -0.3615
- Screen [4, 12]: 0.9949

Molecule: QPDLLYDHIQP [TRRAP_Y862_F860L]
- Screen (variant relative to reference peptide, measured in the pTyr-Var library screen) [1]: 1.53
- Screen [5, 14]: 1.063
- Screen [3, 9]: 0.81
- Screen [4, 10]: 2.501

Molecule: QVQQIYSDSDL [MIB1_Y376_R371Q]
- Screen [5, 11]: 0.8951
- Screen [3, 13]: 0.02886
- Screen [4, 12]: 1.36

Molecule: RQQQDYWLMDV [ANPEP_Y600_I603M]
- Screen [1]: -0.3
- Screen [5, 11]: -1.652
- Screen [4, 12]: -0.2938

Molecule: SAAAIYMVRHP [PMP22_Y117_T118M]
- Screen [1]: 2.191
- Screen [3, 9]: -0.2351
- Screen [4, 12]: 1.843

Molecule: VFDHIYTTQSD [RET_Y928_L923V]
- Screen [5, 14]: -1.691
- Screen [3, 9]: -1.024
- Screen [4, 12]: -2.18

Molecule: VNNLVYENING [FRS2_Y306_K303N]
- Screen [1]: 1.417
- Screen [5, 11]: 1.713
- Screen [3, 13]: 1.603
- Screen [4, 12]: 2.712

Molecule: VVTGPYEKPSL [KIR3DS1_Y221_L220P]
- Screen [1]: -2.822
- Screen [5, 11]: -4.323
- Screen [4, 12]: -3.858

Molecule: WASGIYFVPKG [APBB1IP_Y340_R335W_YF]
- Screen [1]: 1.089
- Screen [5, 11]: 2.226
- Screen [3, 13]: 0.1676
- Screen [4, 12]: 2.1

B1: ACTB_Y240 phosphopeptide Ac-QSLEKS(pY)ELPDGG-NH2 (peptide)
peptide: Ac-QSLEKS[pY]ELPDGG-NH2
SMILES: CC(=O)N[C@@H](CCC(N)=O)C(=O)N[C@@H](CO)C(=O)N[C@@H](CC(C)C)C(=O)N[C@@H](CCC(=O)O)C(=O)N[C@@H](CCCCN)C(=O)N[C@@H](CO)C(=O)N[C@@H](Cc1ccc(OP(=O)(O)O)cc1)C(=O)N[C@@H](CCC(=O)O)C(=O)N[C@@H](CC(C)C)C(=O)N1CCC[C@H]1C(=O)N[C@@H](CC(=O)O)C(=O)NCC(=O)NCC(N)=O
notes: source: synthetic peptide (synthesized in-house, RP-HPLC purified)
- binding result [8]: binds

B2: ACTB_Y240_P243L phosphopeptide Ac-QSLEKS(pY)ELLDGG-NH2 (peptide)
peptide: Ac-QSLEKS[pY]ELLDGG-NH2
SMILES: CC(=O)N[C@@H](CCC(N)=O)C(=O)N[C@@H](CO)C(=O)N[C@@H](CC(C)C)C(=O)N[C@@H](CCC(=O)O)C(=O)N[C@@H](CCCCN)C(=O)N[C@@H](CO)C(=O)N[C@@H](Cc1ccc(OP(=O)(O)O)cc1)C(=O)N[C@@H](CCC(=O)O)C(=O)N[C@@H](CC(C)C)C(=O)N[C@@H](CC(C)C)C(=O)N[C@@H](CC(=O)O)C(=O)NCC(=O)NCC(N)=O
notes: as for B1
- binding result [8]: binds

B3: CCDC39_Y593 phosphopeptide Ac-QRKQQL(pY)TAMEEG-NH2 (peptide)
peptide: Ac-QRKQQL[pY]TAMEEG-NH2
SMILES: CSCC[C@H](NC(=O)[C@H](C)NC(=O)[C@@H](NC(=O)[C@H](Cc1ccc(OP(=O)(O)O)cc1)NC(=O)[C@H](CC(C)C)NC(=O)[C@H](CCC(N)=O)NC(=O)[C@H](CCC(N)=O)NC(=O)[C@H](CCCCN)NC(=O)[C@H](CCCNC(=N)N)NC(=O)[C@H](CCC(N)=O)NC(C)=O)[C@@H](C)O)C(=O)N[C@@H](CCC(=O)O)C(=O)N[C@@H](CCC(=O)O)C(=O)NCC(N)=O
notes: as for B1
- binding result [8]: binds
